DBAASP
Converted amounts (≈) assume the structure as drawn. One block for each molecule: values may come before it.

Key:
Test in all cases: ≥ marks a high value that may be exact or a test limit, other limits are often not marked, values filed in µg/mL are converted to µM
[1] = system: Staphylococcus aureus ATCC 25923
[2] = system: Staphylococcus aureus CUN 3792-99
Vibrio cholerae CUN 09 = system: Vibrio cholerae CUN 09
[3] = system: Pseudomonas aeruginosa CUN 4158-02
Klebsiella pneumoniae = system: Klebsiella pneumoniae
Escherichia coli ESBL = system: Escherichia coli ESBL
[4] = system: Staphylococcus aureus ATCC 43300
[5] = system: Bordetella bronchiseptica CUN 11844-99
[6] = system: Pseudomonas aeruginosa ATCC 27853
[7] = system: Stenotrophomonas maltophilia CUN 3998-00
[8] = system: Acinetobacter baumannii ATCC 19606
[9] = system: Escherichia coli ATCC 25922
[10] = system: Staphylococcus aureus P1369
[11] = system: Pseudomonas aeruginosa AB93066
Escherichia coli AB94012 = system: Escherichia coli AB94012
[12] = system: Staphylococcus aureus P1374
[13] = system: Staphylococcus aureus P838
[14] = system: Staphylococcus aureus P1386
[15] = system: Staphylococcus aureus P1381
[16] = system: Enterococcus faecalis P675
[17] = system: Staphylococcus aureus AB94004
[18] = system: Bacillus thuringiensis AB92037
[19] = system: Micrococcus luteus AB93113
[20] = system: Bacillus subtilis AB91021
Enterococcus sp. S13 = system: Enterococcus sp. S13
[21] = system: Enterobacter cloacae AB2010162
[22] = system: Candida tropicalis AY91009
[23] = system: Micrococcus luteus AB2010179
[24] = system: Bacillus magaterium AB90008
[25] = system: Staphylococcus aureus 16472
[26] = system: Salmonella enterica AB2010185
[27] = system: Klebsiella oxytoca AB2010143
Pseudomonas putida = system: Pseudomonas putida
[28] = system: Escherichia coli DH5alpha
[29] = system: Staphylococcus epidermidis ATCC 14990
Listeria innocua = system: Listeria innocua
Leuconostoc lactis = system: Leuconostoc lactis
Bacillus cereus = system: Bacillus cereus
Streptococcus uberis = system: Streptococcus uberis
[30] = system: Micrococcus luteus ATCC 9341
[31] = system: Enterococcus faecalis ATCC 29212
[32] = system: Staphylococcus aureus ATCC 29213

MIC [1]: 3.03 µM (≈ 8 µg/mL)
MIC [2]: 3.03 µM (≈ 8 µg/mL)
MIC [3]: 12.1 µM (≈ 32 µg/mL)
MIC (Klebsiella pneumoniae): 12.1 µM (≈ 32 µg/mL)
MIC (Escherichia coli ESBL): 6.07 µM (≈ 16 µg/mL)
MIC [4]: 3.03 µM (≈ 8 µg/mL)
MIC [5]: ≥ 48.5 µM
MIC [6]: 6.07 µM (≈ 16 µg/mL)
MIC [7]: 12.1 µM (≈ 32 µg/mL)
MIC [8]: 6.07 µM (≈ 16 µg/mL)
MIC [9]: 6.07 µM (≈ 16 µg/mL)
SMILES: N=C(N)NCCC[C@H](NC(=O)CNC(=O)[C@H](CCCCN)NC(=O)[C@H](Cc1ccccc1)NC(=O)[C@H](CCCCN)NC(=O)[C@H](Cc1c[nH]c2ccccc12)NC(=O)[C@H](CCCNC(=N)N)NC(=O)[C@H](Cc1ccccc1)NC(=O)[C@H](CCCCN)NC(=O)[C@H](CCCCN)NC(=O)[C@H](Cc1ccc(O)cc1)NC(=O)[C@H](CCCNC(=N)N)NC(=O)[C@H](CCCNC(=N)N)NC(=O)CN)C(=O)N[C@@H](Cc1c[nH]c2ccccc12)C(=O)N[C@@H](Cc1ccccc1)C(=O)N[C@@H](Cc1c[nH]c2ccccc12)C(=O)N[C@@H](Cc1ccccc1)C(=O)NCC(=O)O [GRRYKKFRWKFKGRWFWFG]
MIC (Vibrio cholerae CUN 09): 6.07 µM (≈ 16 µg/mL)

MIC [10]: ≥ 80.6 µM
MIC [11]: ≥ 64.5 µM
MIC (Escherichia coli AB94012): ≥ 64.5 µM
MIC [12]: ≥ 129 µM
MIC [13]: ≥ 32.2 µM
MIC [14]: ≥ 161 µM
MIC [15]: ≥ 322 µM
MIC [16]: ≥ 32.2 µM
MIC [17]: 8.06 µM (≈ 12.5 µg/mL)
MIC [18]: ≥ 64.5 µM
MIC [19]: ≥ 64.5 µM
MIC [20]: ≥ 64.5 µM
SMILES: CC(C)C[C@H](NC(=O)[C@H](CO)NC(=O)CNC(=O)[C@H](Cc1c[nH]c2ccccc12)NC(=O)[C@H](Cc1ccccc1)NC(=O)CN)C(=O)N[C@@H](Cc1c[nH]c2ccccc12)C(=O)N[C@@H](CCC(=O)O)C(=O)NCC(=O)N[C@H](C(=O)N[C@@H](CCCCN)C(=O)N[C@@H](CO)C(=O)N[C@H](C(=O)N[C@H](C(N)=O)C(C)C)C(C)C)C(C)C [GFWGSLWEGVKSVV]

MIC (Enterococcus sp. S13): ≥ 36 µM
MIC [21]: ≥ 87 µM
MIC [22]: 16 µM (≈ 22.5 µg/mL)
MIC [23]: 18 µM (≈ 25.3 µg/mL)
MIC [24]: ≥ 36 µM
MIC [25]: 28 µM (≈ 39.3 µg/mL)
MIC [26]: ≥ 68 µM
MIC [17]: ≥ 48 µM
MIC [27]: ≥ 87 µM
MIC (Pseudomonas putida): ≥ 87 µM
MIC [28]: ≥ 48 µM
SMILES: CC[C@H](C)[C@H](N)C(=O)N[C@@H](Cc1ccccc1)C(=O)NCC(=O)N[C@@H](C)C(=O)N[C@H](C(=O)N[C@@H](Cc1c[nH]c2ccccc12)C(=O)N[C@@H](CCCCN)C(=O)NCC(=O)N[C@H](C(=O)N[C@@H](CO)C(=O)N[C@@H](CO)C(=O)N[C@@H](CC(C)C)C(=O)N[C@@H](CC(C)C)C(=O)O)[C@@H](C)CC)[C@@H](C)CC [IFGAIWKGISSLL]

MIC [29]: 25 µM (≈ 38.7 µg/mL)
MIC (Listeria innocua): ≥ 50 µM
MIC (Leuconostoc lactis): 12 µM (≈ 18.6 µg/mL)
MIC (Bacillus cereus): 25 µM (≈ 38.7 µg/mL)
MIC (Streptococcus uberis): 25 µM (≈ 38.7 µg/mL)
MIC [30]: 25 µM (≈ 38.7 µg/mL)
MIC [31]: 100 µM (≈ 155 µg/mL)
MIC [32]: 12 µM (≈ 18.6 µg/mL)
SMILES: CC[C@H](C)[C@H](N)C(=O)N[C@H](C(=O)NCC(=O)N[C@@H](Cc1cnc[nH]1)C(=O)N[C@@H](CC(C)C)C(=O)N[C@H](C(=O)N[C@@H](CCCCN)C(=O)N[C@H](C(=O)N[C@@H](C)C(=O)N[C@@H](CC(C)C)C(=O)NCC(=O)N[C@@H](CCSC)C(=O)N[C@@H](CC(C)C)C(=O)NCC(=O)N[C@@H](CC(C)C)C(N)=O)[C@@H](C)O)[C@@H](C)CC)[C@@H](C)CC [IIGHLIKTALGMLGL]
